From ChEMBL document CHEMBL2429750, “Inhibitors of tick-borne flavivirus reproduction from structure-based virtual screening” (ACS Med Chem Lett, 2013)

What was measured:
[1] = Acute cytotoxicity against PEK cells after 24 hrs by neutral red staining assay; assay type: cell-based, Sus scrofa; details: pig
[2] = test system: Powassan virus; test: Antiviral activity against Powassan virus 24 infected in PEK cells assessed as inhibition of viral plaque formation after 1 hr by gentian violet staining assay; assay type: functional, cell-based; details: for IC50: Powassan virus, 24, PEK
[3] = Chronic cytotoxicity against PEK cells after 7 days by neutral red staining assay; assay type: cell-based, Sus scrofa; details: pig
[4] = test system: Tick-borne encephalitis virus; test: Antiviral activity against Tick-borne encephalitis virus Absettarov infected in PEK cells assessed as inhibition of viral plaque formation after 1 hr by gentian violet staining assay; assay type: functional, cell-based
[5] = test system: Omsk hemorrhagic fever virus; test: Antiviral activity against Omsk hemorrhagic fever virus Nikitina infected in PEK cells assessed as inhibition of viral plaque formation after 1 hr by gentian violet staining assay; assay type: functional, cell-based

In the case of `CC1=C(C(=O)Nc2c(C)cccc2C)C(c2ccco2)C(C#N)=C(SCC(=O)Nc2nc3ccccc3s2)N1` (racemic), the CC50 at 24 h [1] is reported as over 250 µM, the inhibition [2] is reported as “Dose-dependent effect” and the IC50 [2] is reported as over 10 µM. For the same compound, the CC50 at 168 h [3] was 7 µM, the IC50 [4] was over 10 µM and the inhibition [4] was “Dose-dependent effect”. The IC50 [5] was 7.1 µM and the inhibition [5] was “Dose-dependent effect”.
With `CCc1ccc(NC(=O)CSC2=C(C#N)C(c3ccc(O)c(OC)c3)C(C(=O)Nc3ccccc3)=C(C)N2)cc1` (racemic) the CC50 at 24 h [1] was 114 µM, the inhibition [2] was “Dose-dependent effect” and the IC50 [2] was over 10 µM. For the same compound, the CC50 at 168 h [3] was 31 µM, the IC50 [4] was over 10 µM and the inhibition [4] was “Dose-dependent effect”. The IC50 [5] was 1.8 µM and the inhibition [5] was “Dose-dependent effect”.
For `CC1=C(C(=O)Nc2ccccc2)C(c2cccs2)C(C#N)=C(SCC(=O)c2ccccc2)N1` (racemic), the CC50 at 24 h [1] was over 250 µM, the inhibition [2] was “Dose-dependent effect” and the IC50 [2] was over 10 µM. For the same compound, the CC50 at 168 h [3] was 17 µM, the IC50 [4] was over 10 µM and the inhibition [4] was “Dose-dependent effect”. The IC50 [5] was over 10 µM and the inhibition [5] was “Dose-dependent effect”.
For `CC1=C(C(=O)Nc2ccccc2)C(c2ccco2)C(C#N)=C(SCC(=O)Nc2ccc(C)c(C)c2)N1` (racemic), the CC50 at 24 h [1] was over 250 µM, the inhibition [2] was “Dose-dependent effect” and the IC50 [2] was over 10 µM. For the same compound, the CC50 at 168 h [3] was 19 µM, the IC50 [4] was over 10 µM and the inhibition [4] was “Dose-dependent effect”. The IC50 [5] was 3.2 µM and the inhibition [5] was “Dose-dependent effect”.
With `CC1=C(C(=O)Nc2nc3ccccc3s2)C(c2ccco2)C(C#N)=C(SCC(=O)Nc2nc3ccccc3s2)N1` (racemic) the CC50 at 24 h [1] was over 250 µM, the inhibition [2] was “Dose-dependent effect” and the IC50 [2] was over 10 µM. The CC50 at 168 h [3] was 52 µM, the IC50 [4] was over 10 µM and the inhibition [4] was “Dose-dependent effect”. For the same compound, the IC50 [5] was 2.5 µM and the inhibition [5] was “Dose-dependent effect”.
For `CCc1ccc(NC(=O)CSC2=C(C#N)C(c3ccco3)C(C(=O)Nc3ccc(Cl)cc3)=C(C)N2)cc1` (racemic), the CC50 at 24 h [1] was 26 µM, the inhibition [2] was “Dose-dependent effect” and the IC50 [2] was over 10 µM. For the same compound, the CC50 at 168 h [3] was 27 µM, the IC50 [4] was over 10 µM and the inhibition [4] was “Dose-dependent effect”. For the same compound, the IC50 [5] was over 10 µM and the inhibition [5] was “Dose-dependent effect”.
For `CC1=C(C(=O)Nc2nc3ccccc3s2)C(c2ccco2)C(C#N)=C(SCC(=O)Nc2ccc(C(C)C)cc2)N1` (racemic), the CC50 at 24 h [1] was over 250 µM, the inhibition [2] was “Dose-dependent effect” and the IC50 [2] was over 10 µM. For the same compound, the CC50 at 168 h [3] was 29 µM, the IC50 [4] was over 10 µM and the inhibition [4] was “Dose-dependent effect”. The IC50 [5] was 2.5 µM and the inhibition [5] was “Dose-dependent effect”.
With `CCCCc1ccc(NC(=O)CSC2=C(C#N)C(c3ccco3)C(C(=O)Nc3ccc(OCC)cc3)=C(C)N2)cc1` (racemic) the CC50 at 24 h [1] was 64 µM, the inhibition [2] was “Dose-dependent effect” and the IC50 [2] was over 10 µM. The CC50 at 168 h [3] was 14 µM, the IC50 [4] was 2.5 µM and the inhibition [4] was “Dose-dependent effect”. For the same compound, the IC50 [5] was over 10 µM and the inhibition [5] was “Dose-dependent effect”.
With `COc1ccccc1NC(=O)C1=C(C)NC(SCC(=O)Nc2ccc(Br)cc2)=C(C#N)C1c1ccc(C)o1` (racemic) the CC50 at 24 h [1] was 248 µM, the inhibition [2] was “Dose-dependent effect” and the IC50 [2] was over 10 µM. For the same compound, the CC50 at 168 h [3] was 34 µM, the IC50 [4] was over 10 µM and the inhibition [4] was “Dose-dependent effect”. The IC50 [5] was 3.7 µM and the inhibition [5] was “Dose-dependent effect”.
For `CC1=C(C(=O)Nc2ccc(Cl)cc2)C(c2ccccc2)C(C#N)=C(SCC(=O)Nc2cccc(C)c2)N1` (racemic), the CC50 at 24 h [1] was over 250 µM, the inhibition [2] was “Dose-dependent effect” and the IC50 [2] was over 10 µM. The CC50 at 168 h [3] was 41 µM, the IC50 [4] was 2 µM and the inhibition [4] was “Dose-dependent effect”. For the same compound, the IC50 [5] was over 10 µM and the inhibition [5] was “Dose-dependent effect”.
For `CCc1ccc(N2CSC3=C(C#N)C(c4cccc(OCc5ccccc5)c4)CC(=O)N3C2)cc1` (racemic), the CC50 at 24 h [1] was over 250 µM, the inhibition [2] was “Dose-dependent effect” and the IC50 [2] was over 10 µM. For the same compound, the CC50 at 168 h [3] was 236 µM, the IC50 [4] was over 10 µM and the inhibition [4] was “Dose-dependent effect”. For the same compound, the IC50 [5] was over 11.9 µM and the inhibition [5] was “Dose-dependent effect”.
For `CC1=C(C(=O)Nc2ccc(Cl)cc2)C(c2ccccc2)C(C#N)=C(SCC(=O)Nc2ccc3ccccc3c2)N1` (racemic), the CC50 at 24 h [1] was 111 µM, the inhibition [2] was “Dose-dependent effect” and the IC50 [2] was over 10 µM. The CC50 at 168 h [3] was 20 µM, the IC50 [4] was over 10 µM and the inhibition [4] was “Dose-dependent effect”. For the same compound, the IC50 [5] was over 10 µM and the inhibition [5] was “Dose-dependent effect”.
With `COc1ccc(N2CSC3=C(C#N)C(c4ccc(OCc5ccc(Cl)cc5)cc4)CC(=O)N3C2)c(OC)c1` (racemic) the CC50 at 24 h [1] was 109 µM, the inhibition [2] was “Dose-dependent effect” and the IC50 [2] was 1.3 µM. For the same compound, the CC50 at 168 h [3] was 39 µM, the IC50 [4] was 0.07 µM and the inhibition [4] was “Dose-dependent effect”. The IC50 [5] was over 10 µM and the inhibition [5] was “Dose-dependent effect”.
In the case of `CC1=C(C(=O)Nc2ccccc2C)C(c2ccco2)C(C#N)=C(SCC(=O)Nc2ccc3ccccc3c2)N1` (racemic), the CC50 at 24 h [1] is reported as over 250 µM, the inhibition [2] is reported as “Dose-dependent effect” and the IC50 [2] is reported as over 10 µM. The CC50 at 168 h [3] was over 250 µM, the IC50 [4] was over 10 µM and the inhibition [4] was “Dose-dependent effect”. For the same compound, the IC50 [5] was 5.3 µM and the inhibition [5] was “Dose-dependent effect”.
In the case of `COc1ccccc1NC(=O)C1=C(C)NC(SCC(=O)Nc2ccc(C)cc2)=C(C#N)C1c1cccs1` (racemic), the CC50 at 24 h [1] is reported as over 250 µM, the inhibition [2] is reported as “Dose-dependent effect” and the IC50 [2] is reported as over 10 µM. The CC50 at 168 h [3] was 97 µM, the IC50 [4] was over 10 µM and the inhibition [4] was “Dose-dependent effect”. For the same compound, the IC50 [5] was 5.5 µM and the inhibition [5] was “Dose-dependent effect”.
In the case of `COc1ccc(NC(=O)CSC2=C(C#N)C(c3ccccc3F)C(C(=O)Nc3ccccc3C)=C(C)N2)cc1` (racemic), the CC50 at 24 h [1] is reported as over 250 µM, the inhibition [2] is reported as “Dose-dependent effect” and the IC50 [2] is reported as over 10 µM. For the same compound, the CC50 at 168 h [3] was 89 µM, the IC50 [4] was over 10 µM and the inhibition [4] was “Dose-dependent effect”. The IC50 [5] was 7.2 µM and the inhibition [5] was “Dose-dependent effect”.
For `CCc1ccc(NC(=O)CSC2=C(C#N)C(c3ccco3)C(C(=O)Nc3ccc(S(N)(=O)=O)cc3)=C(C)N2)cc1` (racemic), the CC50 at 24 h [1] was over 250 µM, the inhibition [2] was “Dose-dependent effect” and the IC50 [2] was over 10 µM. For the same compound, the CC50 at 168 h [3] was 153 µM, the IC50 [4] was over 10 µM and the inhibition [4] was “Dose-dependent effect”. For the same compound, the IC50 [5] was 10 µM and the inhibition [5] was “Dose-dependent effect”.
In the case of `CCc1ccc(NC(=O)CSC2=C(C#N)C(c3ccco3)C(C(=O)Nc3ccc(CC)cc3)=C(C)N2)cc1` (racemic), the CC50 at 24 h [1] is reported as 57 µM, the inhibition [2] is reported as “Dose-dependent effect” and the IC50 [2] is reported as over 10 µM. The CC50 at 168 h [3] was 33 µM, the IC50 [4] was over 10 µM and the inhibition [4] was “Dose-dependent effect”. The IC50 [5] was over 10 µM and the inhibition [5] was “Dose-dependent effect”.
With `CC1=C(C(=O)Nc2ccc(Cl)cc2)C(c2ccccc2)C(C#N)=C(SCC(=O)Nc2ccc(Oc3ccccc3)cc2)N1` (racemic) the CC50 at 24 h [1] was over 250 µM, the inhibition [2] was “Dose-dependent effect” and the IC50 [2] was over 10 µM. For the same compound, the CC50 at 168 h [3] was 38 µM, the IC50 [4] was 2.8 µM and the inhibition [4] was “Dose-dependent effect”. The IC50 [5] was over 10 µM and the inhibition [5] was “Dose-dependent effect”.
With `CCOc1ccccc1N1CSC2=C(C#N)C(c3cccc(OCc4ccccc4)c3)CC(=O)N2C1` (racemic) the CC50 at 24 h [1] was over 250 µM, the inhibition [2] was “Dose-dependent effect” and the IC50 [2] was 2.2 µM. The CC50 at 168 h [3] was 116 µM, the IC50 [4] was 2.6 µM and the inhibition [4] was “Dose-dependent effect”. For the same compound, the IC50 [5] was over 10 µM and the inhibition [5] was “Dose-dependent effect”.
For `COc1ccc(N2CSC3=C(C#N)C(c4ccc(OCc5ccccc5)c(OC)c4)CC(=O)N3C2)cc1` (racemic), the CC50 at 24 h [1] was over 250 µM, the inhibition [2] was “Dose-dependent effect” and the IC50 [2] was over 10 µM. For the same compound, the CC50 at 168 h [3] was 53 µM, the IC50 [4] was 0.09 µM and the inhibition [4] was “Dose-dependent effect”. For the same compound, the IC50 [5] was over 10 µM and the inhibition [5] was “Dose-dependent effect”.
In the case of `CCCCc1ccc(N2CSC3=C(C#N)C(c4ccc(OCc5ccccc5)cc4)CC(=O)N3C2)cc1` (racemic), the CC50 at 24 h [1] is reported as over 250 µM, the inhibition [2] is reported as “Dose-dependent effect” and the IC50 [2] is reported as over 10 µM. For the same compound, the CC50 at 168 h [3] was 35 µM, the IC50 [4] was 1.9 µM and the inhibition [4] was “Dose-dependent effect”. For the same compound, the IC50 [5] was over 10 µM and the inhibition [5] was “Dose-dependent effect”.
